Literature values, collected in patent US10858526B2, “Water-based ink composition for ink jet recording and coloring material liquid” (Seiko Epson Corporation, priority 2017, dated 2020).

Details: water-soluble organic solvent

| SMILES | water-octanol partition coefficient (log P) |
| --- | --- |
| CCCCOCCOCCO [butyl diglycol] | 0.56 |
| CCCC(O)CCO (centres unmarked) [1,3-hexanediol] | 0.28 |
